Source: patent publication US11530196B2, “Pyrimidine compound acting on EGFR and ERBB2” (CHINA RESOURCES PHARMACEUTICAL HOLDINGS COMPANY LIMITED, priority 2019, dated 2022)
“And” between values parts separate entries of the source, which are not always exact repeats. Identical values can stand only once. Like-named read-outs stand apart in the source and are kept apart here.

Tests used:
[1] = molecular target: EGFR exon 20 insertion (D770_N771insNPG) enzyme (Homo sapiens, UniProt P00533, INS770NPG); test: Kinase assay (HTRF KinEASE TK), EGFR exon 20 insertion; format: biochemical
Sequence of EGFR exon 20 insertion (D770_N771insNPG) enzyme (P00533 with tags, fused parts or gaps INS770NPG limits assumed): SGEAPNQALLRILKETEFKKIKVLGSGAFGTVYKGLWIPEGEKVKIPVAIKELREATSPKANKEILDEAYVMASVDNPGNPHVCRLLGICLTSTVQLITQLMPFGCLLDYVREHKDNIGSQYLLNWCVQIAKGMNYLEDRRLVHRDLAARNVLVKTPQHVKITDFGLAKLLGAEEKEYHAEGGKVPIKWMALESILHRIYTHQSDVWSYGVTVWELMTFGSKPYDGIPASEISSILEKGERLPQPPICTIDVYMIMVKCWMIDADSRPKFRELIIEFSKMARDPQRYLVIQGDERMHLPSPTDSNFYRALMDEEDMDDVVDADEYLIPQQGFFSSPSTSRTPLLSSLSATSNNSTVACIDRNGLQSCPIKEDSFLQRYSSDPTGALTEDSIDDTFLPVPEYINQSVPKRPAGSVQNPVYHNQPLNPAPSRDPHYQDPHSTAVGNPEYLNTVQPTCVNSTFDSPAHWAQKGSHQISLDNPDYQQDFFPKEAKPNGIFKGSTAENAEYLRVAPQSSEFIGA
Description: To detect the inhibitory effect of compounds on EGFR WT, EGFR (D770_N771insNPG), ERBB2 (V777_G778ins>CG), EGFR T790M/L858R enzyme activities
EGFR WT (Invitrogen, Cat. No. PR7295B), EGFR [L858R] (Invitrogen, Cat. No. PR7447A), EGFR [d746-750] (Invitrogen, Cat. No. PV6179), ATP (Sigma, Cat. No. A7699-1G), DMSO (Sigma, Cat. No. D2650), DTT (Sigma, Cat. No. 43815), 384-well plate, compound dilution plate (Greiner, Cat. No. 781280), 384-well plate, test plate (Perkin Elmer, Cat. No. 6007299), HTRF KinEASE TK Kit (Cisbio, Cat. No. 62TK0PEB), magnesium chloride (Sigma, Cat. No. M1028), Orthovanadate (Sigma, Cat. No. 56508), BSA (Sigma, Cat. No. A7030), HEPES (Life technology, Cat. No. 11344-041).
The final test concentrations of the test compounds ranged from 10 μM to 0.17 nM in 3-fold gradient dilutions at 11 concentrations.
The preparation of the buffer, 50 mM HEPES (pH 7.5), 0.01% BSA, 5 mM MgCl2, and 0.1 mM Orthovanadate were contained in the buffer. After the preparation of the buffer, the enzyme and substrate were mixed with pre-diluted prepared compounds of different concentrations, and the mixture was placed at room temperature for 15 minutes. […] After the reaction was completed, the antibody was added to the assay, incubated at room temperature for 60 minutes and then detected by Envision (plate reading instrument), and data were collected. […]

[2] = molecular target: Ba/F3 EGFR-H773_V774insNPH (Homo sapiens, UniProt P00533, DUP771-773, cells depend on it); test: Anti-proliferation against Ba/F3 exon 20 insertion mutant cells (NPH); format: cell-based, mouse; conditions: CTG, 72 hours, read-out: Mutant cells IC50 (anti-proliferation)
Sequence of Ba/F3 EGFR-H773_V774insNPH (P00533 with tags, fused parts or gaps DUP771-773): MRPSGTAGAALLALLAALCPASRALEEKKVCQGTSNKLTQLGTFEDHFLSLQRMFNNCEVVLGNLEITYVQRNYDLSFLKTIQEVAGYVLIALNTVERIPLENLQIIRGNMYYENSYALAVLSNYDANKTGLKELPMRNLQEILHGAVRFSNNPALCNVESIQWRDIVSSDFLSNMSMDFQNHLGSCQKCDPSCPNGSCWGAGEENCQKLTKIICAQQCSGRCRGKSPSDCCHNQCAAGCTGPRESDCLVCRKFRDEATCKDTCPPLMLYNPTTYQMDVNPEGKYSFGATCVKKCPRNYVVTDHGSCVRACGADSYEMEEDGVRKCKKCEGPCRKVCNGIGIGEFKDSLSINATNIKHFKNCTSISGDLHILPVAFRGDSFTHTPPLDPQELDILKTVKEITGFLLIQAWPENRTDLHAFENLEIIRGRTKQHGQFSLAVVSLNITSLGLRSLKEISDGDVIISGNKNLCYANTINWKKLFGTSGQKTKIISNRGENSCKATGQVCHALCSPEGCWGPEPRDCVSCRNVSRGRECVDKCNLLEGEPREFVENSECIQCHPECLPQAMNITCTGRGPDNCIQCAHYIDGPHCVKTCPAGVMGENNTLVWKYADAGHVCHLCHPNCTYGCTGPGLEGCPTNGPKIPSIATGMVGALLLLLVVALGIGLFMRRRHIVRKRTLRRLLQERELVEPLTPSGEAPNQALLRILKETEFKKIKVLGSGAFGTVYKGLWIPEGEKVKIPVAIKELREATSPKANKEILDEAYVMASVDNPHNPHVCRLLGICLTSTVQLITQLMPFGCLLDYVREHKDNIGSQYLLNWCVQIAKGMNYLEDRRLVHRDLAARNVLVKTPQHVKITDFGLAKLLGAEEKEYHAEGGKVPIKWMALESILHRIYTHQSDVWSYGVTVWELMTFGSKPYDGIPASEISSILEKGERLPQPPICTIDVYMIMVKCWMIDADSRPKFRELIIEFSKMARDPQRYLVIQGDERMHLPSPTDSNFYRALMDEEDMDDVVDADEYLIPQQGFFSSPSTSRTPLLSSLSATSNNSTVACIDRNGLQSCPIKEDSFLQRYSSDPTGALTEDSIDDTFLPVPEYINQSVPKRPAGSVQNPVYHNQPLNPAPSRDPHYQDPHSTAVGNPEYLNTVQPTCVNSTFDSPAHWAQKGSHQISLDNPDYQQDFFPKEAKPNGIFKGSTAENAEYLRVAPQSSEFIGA
Description: RPMI1640 medium was purchased from Hyclone, FBS fetal bovine serum was purchased from GBICO, and trypsin-EDTA were both purchased from Giboco. DPBS was purchased from Corning, penicillin/streptomycin solution was purchased from Hyclone, and Cell-Titer Glo reagent was purchased from Promega (Cat. No. G7572). Ba/F3 EGFR-D770_N771insSVD, Ba/F3 EGFR-H773_V774insNPH, Ba/F3 EGFR-V769_D770insASV, BaF3 ERBB2 A775_G776 ins YVMA, the cell lines were constructed by Beijing Kang Yuan Bochuang Biotechnology Co., Ltd. Plate reading instrument: Envision (PerkinElmer).
Cells in logarithmic growth phase were harvested and cell counts were performed using a […]. Cell viability was detected by the Taipan Blue rejection assay. The cell concentration was adjusted; the cell suspension was added to a 96-well plate separately. Cells in 96-well plates were incubated overnight at 37° C., 5% CO2, and 95% humidity. […] The cell plate was placed at room temperature to stabilize the cold light signal, and the cold light values were read. The data were analyzed using GraphPad Prism 7.0 software, and a nonlinear S-curve regression was used to fit the data to derive the dose-effect curve from which the IC50 values were calculated. […]

[3] = Pharmacokinetic study, single intravenous and oral administration in Beagle dogs; format: in vivo; conditions: dog, plasma; for AUC(0-t): read-out: Exposure of AUC0-last
Protocol: The purpose of this experiment was to investigate the pharmacokinetics (PK) of the compounds in different species after single intravenous and single oral administration of the test compounds.
After intravenous or oral administration, blood samples were collected from the animals, and the actual time of blood collection was recorded. After the blood samples were collected, the samples were immediately transferred to the labelled centrifuge tube containing K2-EDTA, and then centrifuged to obtain plasma. Plasma was transferred to pre-cooled centrifuge tubes, quick-frozen in dry ice and stored in an ultra-low temperature refrigerator at −70±10° C. until LC-MS/MS analysis was performed.
The plasma drug concentration data of the compounds were processed using pharmacokinetic software with a non-compartmental model. The peak concentration (Cmax) and time to peak (Tmax), as well as the quantifiable end time were obtained directly from the plasma concentration-time curve. The following pharmacokinetic parameters were calculated using the log-linear trapezoidal method: half-life (T1/2), apparent volume of distribution (Vdss), and clearance (Cl), area under the time-plasma concentration curve from point 0 to the end time point (AUC0-last), and initial concentration (C0).

- IC50 [1]: 0.8 nM and 0.7 nM
- GI50 [2]: 15 nM
- clearance ([3]; intravenous injection 2 mg/kg): 12.7 mL/min/kg
- half-life ([3]; intravenous injection 2 mg/kg): 8.79 h
- AUC ([3]; intravenous injection 2 mg/kg, read-out: Exposure of AUC): 3.85 µM·h
- Vd ([3]; intravenous injection 2 mg/kg, read-out: Vdss): 7.98 L/kg
- bioavailability ([3]; oral 10 mg/kg): 53.5%
- AUC(0-t) ([3]; oral 10 mg/kg): 10.3 µM·h
- bioavailability ([3]; oral 50 mg/kg): 36.6%
- AUC(0-t) ([3]; oral 50 mg/kg): 35.3 µM·h
Compound: C=CC(=O)Nc1cc(Nc2ncc(C(=O)OC(C)C)c(-c3cn(OC)c4ccccc34)n2)c(OC)cc1N(C)CCN(C)C.CS(=O)(=O)O [Compound 1]
